Patent US12594243B2, “Pharmaceutical formulations” (THERACOSBIO, LLC, priority 2020, dated 2026)

Key:
P-gp = P-gp (Homo sapiens, UniProt P08183); assay: P-gp substrate observation; type: in vitro ADME
Source text: Because P-gp expression increases with distance along the small intestine, absorption is likely greater in the duodenum than the ileum, and quantitative mass balance studies using [^14C]-bexagliflozin have shown that colonic absorption is minimal (Zhang et al. Xenobiotica. 2019 Aug. 27:1-11. doi: 10.1080/00498254.2019.1654634). Because of the potential practical incompatibility of using an extended release tablet while aiming for most drug release to occur high in the small intestine, tablets of the invention advantageously include an adaptation that can help to retain them in the stomach. A large part of the extended release of bexagliflozin can thus occur in the stomach, permitting absorption of the drug to occur at the desired location in the small intestine, thereby providing an advantageous pharmacokinetic profile.

[1] = quantitative mass balance studies using [^14C]-bexagliflozin; cited from earlier work
[2] = human, in vivo
Source text: In a drug-drug interaction clinical pharmacology study the effects of the GLP-1 receptor agonist exenatide on the pharmacokinetics of bexagliflozin were studied in a randomized crossover study. It is known that GLP-1 receptor agonists retard gastric emptying and because the bexagliflozin dosage form has a gastroretentive mechanism, the possibility that the retardation would adversely affect bexagliflozin delivery was considered important to address (see e.g., Guideline on the pharmacokinetic and clinical evaluation of modified release dosage forms (EMA/CPMP/EWP/280/96 Corr1) section 5.1.4.2.). In the study, participants were assigned to either receive bexagliflozin alone first, or combined treatment with bexagliflozin and exenatide first. Each group received both treatments alternately, in a crossover fashion (two-period, two-treatment crossover design), with the two treatment periods separated by a 7-day washout period. […] Although the endpoints of the confidence intervals fell outside of the range 80-125%, indicating an interaction leading to a change in exposure when bexagliflozin was administered following exenatide, the effect of exenatide on bexagliflozin pharmacokinetics was not so large as to jeopardize patient safety or to provoke a recommendation for a change in prescribing pattern. […] Absorption was delayed when bexagliflozin was administered 30 minutes after exenatide injection, with a median Tmax of 5.00 hours post-dose compared to 2.00 hours post-dose following administration of bexagliflozin alone.

Chain of P-gp (P08183 whole entry): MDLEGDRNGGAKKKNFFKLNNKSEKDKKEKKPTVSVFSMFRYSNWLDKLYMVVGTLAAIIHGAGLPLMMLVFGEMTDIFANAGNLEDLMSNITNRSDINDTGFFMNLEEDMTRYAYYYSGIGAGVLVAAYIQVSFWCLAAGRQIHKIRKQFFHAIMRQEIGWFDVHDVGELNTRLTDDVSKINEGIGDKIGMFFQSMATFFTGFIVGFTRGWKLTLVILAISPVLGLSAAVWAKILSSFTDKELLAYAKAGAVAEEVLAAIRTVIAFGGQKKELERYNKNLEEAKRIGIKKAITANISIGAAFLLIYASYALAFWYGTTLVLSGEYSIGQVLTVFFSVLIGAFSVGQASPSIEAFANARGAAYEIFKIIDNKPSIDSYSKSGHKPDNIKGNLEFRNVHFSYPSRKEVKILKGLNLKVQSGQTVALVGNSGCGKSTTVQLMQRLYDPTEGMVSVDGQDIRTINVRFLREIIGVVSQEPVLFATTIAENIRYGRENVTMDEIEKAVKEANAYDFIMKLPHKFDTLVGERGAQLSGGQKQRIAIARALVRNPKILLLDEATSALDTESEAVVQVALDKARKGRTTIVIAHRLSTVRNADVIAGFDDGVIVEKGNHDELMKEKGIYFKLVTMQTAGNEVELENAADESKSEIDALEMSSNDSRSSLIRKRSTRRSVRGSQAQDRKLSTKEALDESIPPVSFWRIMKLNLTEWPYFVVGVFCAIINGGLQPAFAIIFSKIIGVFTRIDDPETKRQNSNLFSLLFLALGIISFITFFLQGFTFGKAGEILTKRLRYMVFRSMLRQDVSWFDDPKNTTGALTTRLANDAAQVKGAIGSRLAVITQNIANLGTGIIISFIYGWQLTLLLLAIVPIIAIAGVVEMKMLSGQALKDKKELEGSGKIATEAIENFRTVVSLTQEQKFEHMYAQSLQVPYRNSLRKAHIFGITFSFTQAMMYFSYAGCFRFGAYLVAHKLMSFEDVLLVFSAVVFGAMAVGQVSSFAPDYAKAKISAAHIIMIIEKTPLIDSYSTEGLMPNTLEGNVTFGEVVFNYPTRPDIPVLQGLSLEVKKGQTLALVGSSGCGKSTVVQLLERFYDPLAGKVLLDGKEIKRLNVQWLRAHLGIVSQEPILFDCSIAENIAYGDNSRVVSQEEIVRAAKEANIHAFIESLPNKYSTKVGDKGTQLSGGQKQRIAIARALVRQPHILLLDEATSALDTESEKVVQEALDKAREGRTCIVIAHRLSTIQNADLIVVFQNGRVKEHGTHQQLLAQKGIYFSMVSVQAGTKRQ

With `OC[C@H]1O[C@@H](c2ccc(Cl)c(Cc3ccc(OCCOC4CC4)cc3)c2)[C@H](O)[C@@H](O)[C@@H]1O` [bexagliflozin, (2S,3R,4R,5S,6R)-2-(4-chloro-3-(4-(2-cyclopropoxyethoxy)benzyl)phenyl)-6-(hydroxymethyl)tetrahydro-2H-pyran-3,4,5-triol] as the compound, how does the P-gp substrate status (P-gp) read?
The P-gp substrate status was “P-gp substrate”.

What about the colonic absorption [1] of the same compound?
Its colonic absorption is “minimal”.

And the “intra-subject variability for AUC0-t and AUC0-∞” value [2]?
The value was < 22%.

And the “intra-subject variability for Cmax” value [2]?
Its value is “approximately 32%”.

What about the “ratio of geometric least square means for AUC0-t, with exenatide to alone” value [2] of the same compound?
Its value is 147.50%.

What about the “ratio of geometric least square means for AUC0-∞, with exenatide to alone” value [2] of the same compound?
Its value is 137.56%.

And the “ratio of geometric least square means for Cmax, with exenatide to alone” value [2]?
The value was 125.27%.

And the “increase of AUC0-t compared to bexagliflozin alone” value ([2]; sc)?
Its value is “approximately 48%”.

And the “increase of AUC0-∞ compared to bexagliflozin alone” value ([2]; sc)?
Its value is ~38%.

What about the “increase of Cmax compared to bexagliflozin alone” value ([2]; sc) of the same compound?
Its value is ~25%.
